For series [1], the target named is T1, GlyR α-subunit (hGlyRa1) (Homo sapiens, UniProt P23415).
T1 construct: P2A-mEYFP (C); host or cells: HEK-293
T1 sequence (P23415 29-457): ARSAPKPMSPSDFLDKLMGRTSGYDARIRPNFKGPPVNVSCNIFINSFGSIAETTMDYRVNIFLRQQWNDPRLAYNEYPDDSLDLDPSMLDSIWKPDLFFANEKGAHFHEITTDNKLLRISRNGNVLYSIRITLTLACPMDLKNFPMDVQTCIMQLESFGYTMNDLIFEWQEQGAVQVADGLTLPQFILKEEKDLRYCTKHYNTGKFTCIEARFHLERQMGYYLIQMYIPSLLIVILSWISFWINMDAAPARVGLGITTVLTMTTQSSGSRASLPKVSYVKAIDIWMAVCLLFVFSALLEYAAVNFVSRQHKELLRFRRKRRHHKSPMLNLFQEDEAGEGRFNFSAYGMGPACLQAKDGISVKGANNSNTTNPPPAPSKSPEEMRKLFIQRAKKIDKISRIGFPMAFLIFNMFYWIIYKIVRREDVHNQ
Nature of the series: FLIPR membrane potential assay in HEK-293 cells expressing hGlyRa1. The class given is cell-based. How it is done: For FlexStation assays, HEK-293 cells were plated at 20,000 cells/well, with a plating volume of 100 μl/well, in a black-sided/clear-bottomed 96-well imaging plate (BD Falcon #353219). For transfection, […] in 750 μl Opti-MEM (Gibco 31985-070) was mixed with 30 μl ExpressFect in 750 μl Opti-MEM, pre-incubated for 20 minutes, and then added at 15 μl/well to cells containing 100 μl fresh culture media. Cells were transfected 24 hours after plating and assayed 48 hours after transfection.
A fluorescence-based assay employing the FLIPR Membrane Potential Assay Kit, BLUE formulation, (Molecular Devices, #R8042) was used to detect voltage changes across the cell membrane. Dye loading buffer was prepared according to package literature. Specifically, the contents of one vial of BLUE reagent was dissolved with 5 ml of 1×Assay Buffer, followed by a wash of the vial with another 5 ml of 1× Assay Buffer, to yield a total volume of 10 ml of dye loading buffer. Unused portions of dye loading buffer were stored at −20° C. and used within 5 days. […] Cells were then loaded with 50 μl of Blue dye loading buffer and incubated for 40 min at 37° C./5% CO2. The signal was detected using the FlexStation 3 multimode benchtop microplate reader operated by SoftMax Pro Data Acquisition & Analysis Software (Molecular Devices). Excitation and emission wavelengths were set at 530 nm and 565 nm, respectively, with an emission cut-off of 550 nm. Plate reads were performed at 30° C. with a ‘Low PMT’ setting. […] Other FlexStation parameters included a pipette height of 130 an initial well volume of 100 μl, a transfer volume of 50 μl (therefore, drug concentrations were prepared 3×), and a transfer rate setting of 2, corresponding to ˜31 μl/sec.

In series [2] the test system is wild-type α-subunit of the GluCl glutamate receptor. Nature of the series: FLIPR membrane potential assay in HEK-293 cells expressing wild-type GluCl α-subunit. The class given is cell-based, Caenorhabditis elegans. On the procedure: Cells were transfected 24 hours after plating and assayed 48 hours after transfection.
A fluorescence-based assay employing the FLIPR Membrane Potential Assay Kit, BLUE formulation, (Molecular Devices, #R8042) was used to detect voltage changes across the cell membrane. Dye loading buffer was prepared according to package literature. Specifically, the contents of one vial of BLUE reagent was dissolved with 5 ml of 1× Assay Buffer, followed by a wash of the vial with another 5 ml of 1× Assay Buffer, to yield a total volume of 10 ml of dye loading buffer. Unused portions of dye loading buffer were stored at −20° C. and used within 5 days. For the functional assay, culture medium was removed from the cells and replaced with 50 DMEM. Cells were then loaded with 50 μl of Blue dye loading buffer and incubated for 40 min at 37° C./5% CO2. The signal was detected using the FlexStation 3 multimode benchtop microplate reader operated by SoftMax Pro Data Acquisition & Analysis Software (Molecular Devices). Excitation and emission wavelengths were set at 530 nm and 565 nm, respectively, with an emission cut-off of 550 nm. Plate reads were performed at 30° C. with a ‘Low PMT’ setting. Run times, of which the first 20 s measured basal fluorescence, were 300 s for ivermectin-induced signals. […]

The target of series [3] is T2, L9′A mutated GluCl α-subunit (GluCl*) (Caenorhabditis elegans, UniProt G5EBR3, L315A).
T2 construct: expressed in transfected cells; host or cells: HEK-293
The class given is cell-based. Particulars: increasing doses of ivermectin, cells expressing GluCl*.

Series [4] deals with SNI model of neuropathic pain in the rat. Kind of series: Spared nerve injury (SNI) model of neuropathic pain, von Frey withdrawal threshold (Example 5). The class given is in vivo. Particulars: for withdrawal threshold / reduction of the allodynic response: Control vector animals. An excerpt: Under isoflurane anesthesia the skin on the lateral surface of the thigh was incised and a section made directly through the biceps femoris muscle exposing the sciatic nerve and its three terminal branches: the sural, common peroneal and tibial nerves. The SNI procedure comprised an axotomy and ligation of the tibial and common peroneal nerves leaving the sural nerve intact. The common peroneal and the tibial nerves were tight-ligated with 5.0 silk and sectioned distal to the ligation, removing 2±4 mm of the distal nerve stump. Great care was taken to avoid any contact with or stretching of the intact sural nerve. Muscle and skin were closed in two layers (Decosterd I. and Woolf C. (2000) Pain 87(2):149-158). In the current study this was considered as Day 0.
Testing was performed during the day portion of the circadian cycle only (06:00-18:00 h). Rats were placed in an inverted plastic cage on an elevated wire mesh platform which allowed full access to the paws. Behavioral accommodation was allowed for approximately 15 min, until cage exploration and major grooming activities ceased. The area tested was the lateral region of the plantar left hind paw, in the sural nerve distribution, avoiding the less sensitive tori (footpads). The paw was touched with 1 of a series of 8 von Frey filaments with logarithmically incremental stiffness (0.41, 0.70, 1.20, 2.00, 3.63, 5.50, 8.50, and 15.10 g) (Stoelting). The von Frey filament was presented perpendicular to the plantar surface with sufficient force to cause slight buckling against the paw, and held for approximately 6-8 s. Stimuli were presented at intervals of several seconds, allowing for apparent resolution of any behavioral responses to previous stimuli. A positive response was noted if the paw was sharply withdrawn. Flinching immediately upon removal of the hair was also considered a positive response. Ambulation was considered an ambiguous response, and in such cases the stimulus was repeated. Based on observations on normal, un-operated rats, the cut-off of a 15.10 g filament (˜10% of the body weight of the smaller rats) was selected as the upper limit for testing, since stiffer filaments tended to raise the entire limb rather than to buckle, substantially changing the nature of the stimulus (Chaplan S. et al. (1994) J Neurosci Methods 53(1): 55-63).
One day prior to the surgery (Day −1) animals were tested for their baseline response to mechanical stimulation (mechanical sensitivity). At 10 days post-surgery all animals were re-tested for their mechanical sensitivity.
At days 13, 22 and 35 post-treatment (days 23, 32 and 45 post-surgery) animals were re-evaluated for their mechanical sensitivity. For all of these measurements the operator was blinded as to the identity of the animals.
At day 36 post-treatment (day 46 post-surgery) the animals were dosed with gabapentin (100 mg/kg: IP). At 1 hour and 2 hours post-gabapentin administration the animals were evaluated for their sensitivity to mechanical stimulation.
The 50% withdrawal threshold was determined using the up-down method of Dixon (Chaplan S. et al. (1994) J Neurosci Methods 53(1):55-63; Dixon W J. (1980) Ann. Rev. Pharmacol. Toxicol. 20:441-462). In this paradigm, testing was initiated with the 2.0 g filament, in the middle of the series. Stimuli were always presented in a consecutive fashion, whether ascending or descending. In the absence of a paw withdrawal response to the initially selected filament, a stronger stimulus was presented; in the event of paw withdrawal, the next weaker stimulus was chosen. According to Dixon, optimal threshold calculation by this method requires 6 responses in the immediate vicinity of the 50% threshold. Since the threshold is not known, strings of similar responses may be generated as the threshold is approached from either direction.

For series [5] the following is noted: in vivo; cited from earlier work.
Series [6] concerns GlyR. Particulars: read-out: EC50 for gating of GlyR; cited from earlier work.
In series [7] the test system is HEK-293 cells. Format: cell-based, human. The note with it: 48 hours post-transfection. How it is done: […]. […] […]. […] Five separate wells were evaluated for each condition (un-transfected, mock-transfected, GluCl and GluCl*).
The subject of series [8] is Human airway smooth muscle (HASM) cells. Nature of the series: Histamine-induced increase in intracellular Ca++ (Fluo 8). The class given is cell-based.
Experimental: Human airway smooth muscle (HASM) cells were derived from tracheas obtained from the National Disease Research Interchange (Philadelphia, Pa., USA) and from the International Institute for the Advancement of Medicine (Edison, N.J., USA). The cells were cultured in Ham's F-12 medium supplemented with 10% FBS, 100 U mL^−1 penicillin, 0.1 mg mL^−1 streptomycin and 2.5 mg mL^−1 amphotericin B, and this medium was replaced every 72 h. HASM cells in subculture during passages 1-5 were used, because these cells retain the expression of native contractile protein. The HASM cells were derived from healthy normal donors.
Cells were serum starved for 24 hr and loaded with Fluo 8 calcium sensing dye for 1 hr prior to stimulation with histamine. […] All data from both studies is expressed as relative fluorescent units.

T2 sequence (G5EBR3 21-461 L315A): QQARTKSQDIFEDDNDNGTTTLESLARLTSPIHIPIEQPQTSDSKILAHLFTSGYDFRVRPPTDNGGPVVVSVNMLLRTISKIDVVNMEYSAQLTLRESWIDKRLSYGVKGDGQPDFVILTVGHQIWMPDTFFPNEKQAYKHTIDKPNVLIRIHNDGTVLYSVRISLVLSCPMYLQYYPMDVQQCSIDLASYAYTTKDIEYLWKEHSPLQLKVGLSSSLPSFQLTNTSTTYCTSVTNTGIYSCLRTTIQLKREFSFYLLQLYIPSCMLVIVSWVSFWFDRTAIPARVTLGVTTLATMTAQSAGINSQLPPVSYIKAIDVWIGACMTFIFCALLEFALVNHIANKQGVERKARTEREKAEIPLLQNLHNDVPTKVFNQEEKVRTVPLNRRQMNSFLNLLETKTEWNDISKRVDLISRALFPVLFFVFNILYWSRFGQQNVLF

With `NCCS(=O)(=O)O` [Taurine], the “effect on membrane potential” value in series [1] (taurine 1 μM to 1 mM, monomeric hGlyRa1 channel) was “no direct effect”.
As for Ivermectin, the EC50 in series [2] (HEK-293 cells expressing wild-type GluCl α-subunit alone, 4.5 minutes post addition, read-out: EC50 of change in membrane potential) was 0.147 µM. The “effect of ivermectin on change in membrane potential” value in series [3] is listed as “did not augment the change in membrane potential”.
For the molecule `NCC1(CC(=O)O)CCCCC1` [Gabapentin], the withdrawal threshold in series [4] (1 hour post dose, 100 mg/kg IP) worked out at 3.44 ± 0.36 g; in series [4] (2 hours post dose, 100 mg/kg IP), 4.15 ± 0.19 g; in series [4] (pre-dose, day 46 post-surgery), 2.46 ± 0.49 g. Further, the “reduction of the allodynic response” value is reported as 25% in series [4] (1 hour post-dose, 100 mg/kg IP) and 44% in series [4] (2 hours post-dose, 100 mg/kg IP). Besides, the “effect on response to mechanical stimulation in animals previously treated with GTX-01*” value in series [4] (rat, in vivo) is “no effect”.
In the case of `NCC(=O)O` [Glycine], in series [5], the “half-life in the body” value is 26 to 245 min. Further, the “EC100 of change in membrane potential” value in series [1] (HEK-293 cells expressing hGlyRa1) is listed as “approximately 300 μM”. In addition, the EC50 in series [6] was about 100 µM.

B1: wild-type GluCl α-subunit: fluorescently tagged Caenorhabditis elegans GluCl α-subunit, wild type, expressed from plasmid (protein, UniProt G5EBR3 21-461, looked up)
Glutamate-gated chloride …: QQARTKSQDIFEDDNDNGTTTLESLARLTSPIHIPIEQPQTSDSKILAHLFTSGYDFRVRPPTDNGGPVVVSVNMLLRTISKIDVVNMEYSAQLTLRESWIDKRLSYGVKGDGQPDFVILTVGHQIWMPDTFFPNEKQAYKHTIDKPNVLIRIHNDGTVLYSVRISLVLSCPMYLQYYPMDVQQCSIDLASYAYTTKDIEYLWKEHSPLQLKVGLSSSLPSFQLTNTSTTYCTSVTNTGIYSCLRTTIQLKREFSFYLLQLYIPSCMLVIVSWVSFWFDRTAIPARVTLGVTTLLTMTAQSAGINSQLPPVSYIKAIDVWIGACMTFIFCALLEFALVNHIANKQGVERKARTEREKAEIPLLQNLHNDVPTKVFNQEEKVRTVPLNRRQMNSFLNLLETKTEWNDISKRVDLISRALFPVLFFVFNILYWSRFGQQNVLF
Take B1: the cell viability in series [7] stood at 91.8%. The “unstimulated change in membrane potential” value in series [2] (no agonist, monomeric expression in HEK-293) was “no unstimulated change in membrane potential”.

B2: hGlyRa1 (protein, listed as Homo sapiens)
chain: MYSFNTLRLYLWETIVFFSLAASKEAEAARSAPKPMSPSDFLDKLMGRTSGYDARIRPNFKGPPVNVSCNIFINSFGSIAETTMDYRVNIFLRQQWNDPRLAYNEYPDDSLDLDPSMLDSIWKPDLFFANEKGAHFHEITTDNKLLRISRNGNVLYSIRITLTLACPMDLKNFPMDVQTCIMQLESFGYTMNDLIFEWQEQGAVQVADGLTLPQFILKEEKDLRYCTKHYNTGKFTCIEARFHLERQMGYYLIQMYIPSLLIVILSWISFWINMDAAPARVGLGITTVLTMTTQSSGSRASLPKVSYVKAIDIWMAVCLLFVFSALLEYAAVNFVSRQHKELLRFRRKRRHHKSPMLNLFQEDEAGEGRFNFSAYGMGPACLQAKDGISVKGANNSNTTNPPPAPSKSPEEMRKLFIQRAKKIDKISRIGFPMAFLIFNMFYWIIYKIVRREDVHNQ
With B2, in series [8], the “effect on histamine-induced increase in intracellular Ca” value is recorded as “antagonized”. In series [1], the “unstimulated change in membrane potential” value is “no unstimulated change in membrane potential”.

Source of the values: patent publication US11407812B2, “Targeted expression of chloride channels and methods of use thereof” (GOLEINI INC., priority 2015, dated 2022).
